Assay results published in the supplement of paper PMC10307832.

Columns and labels:
Experiment in all cases: relative viability (nuclei count vs DMSO), 5 days (fraction); higher = more cells survive
Pazopanib + Phenformin = compound: Cc1ccc(Nc2nccc(N(C)c3ccc4c(C)n(C)nc4c3)n2)cc1S(N)(=O)=O [Pazopanib] + N=C(N)NC(=N)NCCc1ccccc1 [Phenformin] (partner 250 µM)
In short: (§1)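 Each reported value is a median over duplicate plates. It expresses relative viability: treated-well nuclei count divided by vehicle-well nuclei count. Lung cancer cell lines in 1536-well plates were dosed by pin tool a day after seeding, alone with one drug or with a fixed anchor-drug dose plus five library-drug doses (not always all listed) in √10 steps, and nuclei were counted after 5 days.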

Ponatinib + Alpelisib = compound: Cc1ccc(C(=O)Nc2ccc(CN3CCN(C)CC3)c(C(F)(F)F)c2)cc1C#Cc1cnc2cccnn12 [Ponatinib] + Cc1nc(NC(=O)N2CCC[C@H]2C(N)=O)sc1-c1ccnc(C(C)(C)C(F)(F)F)c1 [Alpelisib] (partner 2 µM)
In short: as §1

Pazopanib + Foretinib = compound: Cc1ccc(Nc2nccc(N(C)c3ccc4c(C)n(C)nc4c3)n2)cc1S(N)(=O)=O [Pazopanib] + COc1cc2c(Oc3ccc(NC(=O)C4(C(=O)Nc5ccc(F)cc5)CC4)cc3F)ccnc2cc1OCCCN1CCOCC1 [Foretinib] (partner 0.25 µM)
In short: as §1

Ponatinib + Dasatinib = compound: Cc1ccc(C(=O)Nc2ccc(CN3CCN(C)CC3)c(C(F)(F)F)c2)cc1C#Cc1cnc2cccnn12 [Ponatinib] + Cc1nc(Nc2ncc(C(=O)Nc3c(C)cccc3Cl)s2)cc(N2CCN(CCO)CC2)n1 [Dasatinib] (partner 0.075 µM)
In short: as §1

Row | Cell Line | relative viability (Pazopanib + Phenformin; first compound 0.01 µM) | relative viability (Pazopanib + Phenformin; first compound 0.03162 µM) | relative viability (Pazopanib + Phenformin; first compound 0.1 µM) | relative viability (Pazopanib + Phenformin; first compound 0.3162 µM) | relative viability (Pazopanib + Phenformin; first compound 1 µM) | relative viability (Ponatinib + Alpelisib; first compound 0.002 µM) | relative viability (Ponatinib + Alpelisib; first compound 0.006325 µM) | relative viability (Ponatinib + Alpelisib; first compound 0.06325 µM) | relative viability (Ponatinib + Alpelisib; first compound 0.2 µM) | relative viability (Pazopanib + Foretinib; first compound 0.01 µM) | relative viability (Pazopanib + Foretinib; first compound 0.03162 µM) | relative viability (Pazopanib + Foretinib; first compound 0.1 µM) | relative viability (Pazopanib + Foretinib; first compound 0.3162 µM) | relative viability (Pazopanib + Foretinib; first compound 1 µM) | relative viability (Ponatinib + Dasatinib; first compound 0.002 µM) | relative viability (Ponatinib + Dasatinib; first compound 0.006325 µM) | relative viability (Ponatinib + Dasatinib; first compound 0.06325 µM) | relative viability (Ponatinib + Dasatinib; first compound 0.2 µM)
1 | NCI-H441 | 0.741 | 0.911 | 0.811 | 0.986 | 1.01 | 0.625 | 0.615 | 0.808 | 0.525 | 0.974 | 1.14 | 0.859 | 1 | 0.857 | 0.72 | 0.53 | 0.539 | 0.406
2 | NCI-H460 | 0.578 | 0.546 | 0.525 | 0.548 | 0.562 | 0.515 | 0.548 | 0.683 | 0.662 | 0.942 | 1.07 | 1.01 | 1.03 | 0.997 | 0.45 | 0.536 | 0.584 | 0.462
3 | NCI-H520 | 0.386 | 0.545 | 0.507 | 0.705 | 0.537 | 0.747 | 0.834 | 0.882 | 0.66 | 0.675 | 1.02 | 0.688 | 0.799 | 0.936 | 0.205 | 0.201 | 0.162 | 0.139
4 | NCI-H596 | – | 0.916 | 0.732 | 0.879 | 0.963 | 0.428 | 0.449 | 0.495 | 0.399 | – | 0.723 | 0.9 | 0.815 | 0.84 | 0.505 | 0.61 | 0.479 | 0.373
5 | NCI-H647 | 0.483 | 0.643 | 0.541 | 0.663 | 0.615 | 1.12 | 1.25 | 1.06 | 0.961 | 1.13 | 0.974 | 1.14 | 0.925 | 0.854 | 0.159 | 0.171 | 0.211 | 0.117
6 | NCI-H650 | 0.42 | 0.473 | 0.438 | 0.466 | 0.444 | 0.964 | 1.08 | 1.22 | 0.99 | 1.02 | 1.11 | 0.995 | 0.898 | 0.818 | 0.37 | 0.456 | 0.492 | 0.411
7 | NCI-H661 | 0.275 | 0.281 | 0.255 | 0.272 | 0.316 | 0.562 | 0.79 | 0.733 | 0.506 | 0.996 | 1.08 | 1.04 | 1 | 0.995 | 0.786 | 0.965 | 0.987 | 0.819
8 | NCI-H727 | 0.455 | 0.522 | 0.57 | 0.584 | 0.682 | 0.599 | 0.533 | 0.72 | 0.468 | 0.698 | 0.981 | 1.04 | 1.23 | 0.913 | 0.322 | 0.497 | 0.338 | 0.565
9 | NCI-H838 | 0.548 | 0.648 | 0.587 | 0.647 | 0.753 | 1.01 | 0.982 | 1.13 | 0.812 | 0.996 | 1.02 | 1.02 | 1.08 | 1.18 | 0.275 | 0.261 | 0.305 | 0.258
10 | NCI-H1355 | 0.42 | 0.481 | 0.406 | 0.455 | 0.461 | 0.832 | 0.87 | 1.01 | 0.917 | 0.804 | 1 | 1.08 | 0.979 | 1 | 0.651 | 0.714 | 0.81 | 0.668
11 | NCI-H1395 | 0.384 | 0.441 | 0.454 | 0.511 | 0.51 | – | 1.03 | 1.09 | 0.804 | 0.947 | 1.07 | 1.01 | 0.931 | 0.968 | 0.392 | 0.404 | 0.427 | 0.393
12 | NCI-H1437 | 0.355 | 0.312 | 0.34 | 0.303 | 0.338 | 0.952 | 0.969 | 1.17 | 1.03 | 1.33 | 1.25 | 1.16 | 1.21 | 1.31 | 0.316 | 0.382 | 0.36 | 0.357
13 | NCI-H1563 | 0.64 | 0.664 | 0.673 | 0.722 | 0.758 | 0.998 | 0.953 | 1 | 0.789 | 0.823 | 0.966 | 1.04 | 0.969 | 1.08 | 0.473 | 0.506 | 0.447 | 0.434
14 | NCI-H1651 | 0.359 | 0.351 | 0.343 | 0.373 | 0.379 | 0.867 | 1.06 | 1.07 | 0.991 | 0.836 | 0.734 | 0.817 | 0.773 | 0.895 | 0.398 | 0.435 | 0.451 | 0.355
15 | NCI-H1666 | 0.576 | 0.581 | 0.575 | 0.613 | 0.67 | 0.864 | 1.04 | 1.05 | 1.07 | 0.998 | 1.01 | 0.995 | 1.02 | 1.1 | 0.761 | 0.829 | 0.906 | 0.853
16 | NCI-H1734 | 0.353 | 0.416 | 0.417 | 0.495 | 0.418 | 0.594 | 0.721 | 0.741 | 0.614 | 0.829 | 0.948 | 0.873 | 0.893 | 0.926 | 0.496 | 0.469 | 0.42 | 0.377
17 | NCI-H1755 | 0.552 | 0.636 | 0.673 | 0.65 | 0.671 | 0.905 | 0.96 | 0.957 | 0.854 | 0.79 | 0.868 | 0.896 | 0.872 | 0.874 | 0.453 | 0.388 | 0.362 | 0.385
18 | NCI-H1793 | – | 0.419 | 0.394 | 0.425 | 0.421 | 0.677 | 0.946 | 0.907 | 0.729 | – | 0.478 | 0.628 | 0.867 | 0.938 | 0.37 | 0.36 | 0.348 | 0.352
19 | NCI-H1915 | 0.402 | 0.364 | 0.367 | 0.36 | 0.343 | 0.976 | 1.03 | 1.06 | 0.961 | 1.04 | 1.09 | 1.1 | 1.06 | 0.983 | 0.308 | 0.33 | 0.27 | 0.267
20 | NCI-H1944 | – | 0.191 | 0.218 | 0.227 | 0.228 | 0.824 | 0.943 | 1.1 | 0.954 | – | 0.94 | 0.905 | 0.861 | 0.986 | 0.218 | 0.21 | 0.221 | 0.202
21 | NCI-H1975 | 0.399 | 0.437 | 0.445 | 0.471 | 0.502 | 0.618 | 0.773 | 0.92 | 0.675 | 0.911 | 0.945 | 0.997 | 1.03 | 1.03 | 0.28 | 0.355 | 0.318 | 0.267
22 | NCI-H1993 | – | 0.457 | 0.502 | 0.591 | 0.496 | 0.63 | 0.793 | 0.71 | 0.688 | – | 0.69 | 0.783 | 0.728 | 0.817 | 0.684 | 0.661 | 0.832 | 0.603
23 | NCI-H2009 | 0.504 | 0.47 | 0.451 | 0.453 | 0.388 | 1.14 | 1.13 | 1.18 | 1.07 | 1.2 | 1.16 | 1.19 | 1.15 | 1.06 | 0.259 | 0.292 | 0.297 | 0.295
24 | NCI-H2023 | 0.421 | 0.43 | 0.398 | 0.444 | 0.434 | 0.642 | 0.639 | 0.666 | 0.61 | – | 0.886 | 0.77 | 0.849 | 0.893 | 0.494 | 0.522 | 0.807 | 0.409
25 | NCI-H2085 | 0.624 | 0.835 | 0.683 | 0.694 | 0.833 | 0.881 | 1.01 | 1.07 | 0.959 | 0.972 | 1.06 | 1.01 | 0.96 | 1.11 | 0.268 | 0.261 | 0.221 | 0.237
26 | NCI-H2087 | 0.373 | 0.464 | 0.445 | 0.483 | 0.513 | 0.812 | 0.84 | 0.932 | 0.879 | 1.27 | 0.966 | 1.03 | 1.13 | 0.796 | 0.83 | 0.743 | 0.798 | 0.525
27 | NCI-H2126 | 0.489 | 0.521 | 0.537 | 0.53 | 0.587 | 0.779 | 0.769 | 0.851 | 0.852 | 1.16 | 1.18 | 1.26 | 1.06 | 1.06 | 0.554 | 0.564 | 0.65 | 0.531
28 | NCI-H2170 | 0.507 | 0.406 | 0.393 | 0.423 | 0.388 | 0.804 | 0.843 | 0.892 | 0.811 | 1.06 | 1.08 | 1.01 | 1.02 | 1.07 | 0.46 | 0.591 | 0.561 | 0.491
29 | NCI-H2228 | 0.366 | 0.366 | 0.324 | 0.443 | 0.313 | 0.677 | 0.788 | 1.13 | 0.75 | 0.938 | 1.01 | 0.764 | 0.792 | 0.993 | 0.372 | 0.515 | 0.462 | 0.393
30 | NCI-H2347 | 0.218 | 0.385 | 0.38 | 0.468 | 0.377 | 1 | 1.1 | 1.18 | 1.02 | – | – | 0.934 | 1.21 | 0.843 | 0.302 | 0.301 | 0.404 | 0.362
